The values that follow come from US20110178041A1, “HETEROCYCLIC BIARYL DERIVATIVE AND PDE INHIBITOR COMPRISING SAME AS ACTIVE INGREDIENT” (priority 2008, published 2011).

pIC50: −log10 of the molar value.

T1 sequence (Q07343 330-659 limits assumed): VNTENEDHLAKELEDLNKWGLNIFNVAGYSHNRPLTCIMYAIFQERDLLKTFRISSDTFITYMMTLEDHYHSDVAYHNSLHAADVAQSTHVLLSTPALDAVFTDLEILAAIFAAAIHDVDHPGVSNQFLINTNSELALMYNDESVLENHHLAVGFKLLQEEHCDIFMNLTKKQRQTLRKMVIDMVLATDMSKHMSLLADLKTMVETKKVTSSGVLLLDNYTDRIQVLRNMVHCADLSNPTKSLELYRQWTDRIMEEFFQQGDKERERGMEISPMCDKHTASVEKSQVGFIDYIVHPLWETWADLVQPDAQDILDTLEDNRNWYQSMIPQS

This assay addresses T1, PDE4B catalytic zone (PDE4Bcat) (Homo sapiens, UniProt Q07343).
T1 construct: made in house; host or cells: Sf9 insect cells (baculovirus, Bac-to-Bac / Gateway)
The experiment in a line: Phosphodiesterase 4 inhibitory activity ([3H]-cAMP, recombinant PDE4Bcat). Type of assay: biochemical. To be noted: 30° C. 20 minutes, read-out: IC50 (μmol/L) PDE4.
As to `COc1ccc(-c2ccc3[nH]c(=O)ccc3c2)c2cc(C(F)(F)F)nn12` [Example 50, 6-(7-Methoxy-2-trifluoromethylpyrazolo[1,5-a]pyridin-4-yl)quinolin-2(1H)-one], the pIC50 was over 8.00. Regarding `COc1ccc(-c2cc(=O)[nH]c3ccccc23)c2cc(C(F)(F)F)nn12` [Example 51, 4-(7-Methoxy-2-trifluoromethylpyrazolo[1,5-a]pyridin-4-yl)quinolin-2(1H)-one], the pIC50 is 7.00 to 8.00.

Turning to `COc1ccc(-c2cccc3c(=O)[nH]ccc23)c2cc(C(F)(F)F)nn12` [Example 52, 5-(7-Methoxy-2-trifluoromethylpyrazolo[1,5-a]pyridin-4-yl)iso quinolin-1(2H)-one], the pIC50 was 7.00 to 8.00.

With `COc1ccc(-c2ccc3cc[nH]c(=O)c3c2)c2cc(C(F)(F)F)nn12` [Example 54, 7-(7-Methoxy-2-trifluoromethylpyrazolo[1,5-a]pyridin-4-yl)iso quinolin-1(2H)-one], the pIC50 was over 8.00. To `COc1ccc(-c2ccc3c(c2)CCC(=O)N3)c2cc(C(F)(F)F)nn12` [Example 56, 6-(7-Methoxy-2-trifluoromethylpyrazolo[1,5-a]pyridin-4-yl)-3,4-dihydroquinolin-2(1H)-one] belongs 7.00 to 8.00; to `COc1ccc(-c2ccc3c(c2)CC(=O)N3)c2cc(C(F)(F)F)nn12` [Example 57, 5-(7-Methoxy-2-trifluoromethylpyrazolo[1,5-a]pyridin-4-yl)indolin-2-one], 7.00 to 8.00; to `COc1ccc(-c2ccc3[nH]c(=O)ccc3c2)c2c(Cl)c(C(F)(F)F)nn12` [Example 61, 6-(3-Chloro-7-methoxy-2-trifluoromethylpyrazolo[1,5-a]pyridin-4-yl)quinolin-2(1H)-one], over 8.00.

Consider `CNc1ccc(-c2ccc3[nH]c(=O)ccc3c2)c2c(Cl)c(C(F)(F)F)nn12` [Example 65, 6-(3-Chloro-7-methylamino-2-trifluoromethylpyrazolo[1,5-a]pyridin-4-yl)quinolin-2(1H)-one], for which the pIC50 is over 8.00.

As to `CNc1ccc(-c2ccc3c(c2)CCNC3=O)c2c(Cl)c(C(F)(F)F)nn12` [Example 66], the pIC50 is over 8.00. For the compound `CCc1ccc2c(-c3ccc4[nH]c(=O)ccc4c3)ccc(OC)c2n1` [Example 67, 2-Ethyl-8-methoxy-5,6′-biquinolin-2′(1′H)-one], the pIC50 is 7.00 to 8.00. Regarding `COc1ccc(-c2ccc3[nH]c(=O)ccc3c2)c2ccc(C)nc12` [Example 68, 8-Methoxy-2-methyl-5,6′-biquinolin-2′(1′H)-one], the pIC50 is 7.00 to 8.00.

For `COc1ccc(-c2ccc3[nH]c(=O)ccc3c2)c2ccc(C(F)(F)F)nc12` [Example 69, 8-Methoxy-2-trifluoromethyl-5,6′-biquinolin-2′(1′H)-one], the pIC50 was 7.00 to 8.00. To `COc1ccc(-c2ccc3[nH]c(=O)ccc3c2)c2nc(C(F)(F)F)nn12` [Example 70, 6-(5-Methoxy-2-trifluoromethyl[1,2,4]triazolo[1,5-a]pyridin-8-yl) quinolin-2(1H)-one] belongs over 8.00. Consider `COc1ccc(-c2ccc3[nH]c(=O)ccc3c2)c2sc(C(F)(F)F)nc12` [Example 71, 6-(4-Methoxy-2-trifluoromethylbenzo[d]thiazol-7-yl)quinolin-2(1H)-one], for which the pIC50 is over 8.00. As to `COc1ccc(-c2ccc3[nH]c(=O)ccc3c2)c2c1OCNC2=O` [Example 72, 8-Methoxy-5-(2-oxo-1,2-dihydroquinolin-6-yl)-2H-benzo[e][1,3]oxazin-4-(3H)-one], the pIC50 was 7.00 to 8.00. To `COc1ccc(-c2ccc3[nH]c(=O)ccc3c2)c2c1OCC(=O)N2` [Example 74, 8-Methoxy-5-(2-oxo-1,2-dihydroquinolin-6-yl)-2H-benzo[b][1,4]oxazin-3(4H)-one] belongs 7.00 to 8.00; to `COc1ccc(-c2ccc3c(=O)[nH]ccc3c2)c2cccnc12` [Example 80, 6-(8-Methoxyquinolin-5-yl)isoquinolin-1(2H)-one], 7.00 to 8.00; to `CCc1ccc2c(-c3ccc4cc[nH]c(=O)c4c3)ccc(OC)c2n1` [Example 83, 7-(2-Ethyl-8-methoxyquinolin-5-yl)isoquinolin-1(2H)-one], 7.00 to 8.00. `COc1ccc(-c2ccc3[nH]c(=O)ccc3c2)c2nccnc12` [Example 86, 6-(8-Methoxyquinoxalin-5-yl)quinolin-2(1H)-one]: the pIC50 was over 8.00. Take `CCc1cc2c(-c3ccc4[nH]c(=O)ccc4c3)ccc(OC)n2n1` [Example 87, 6-(2-Ethyl-7-methoxypyrazolo[1,5-a]pyridin-4-yl)quinolin-2(1H)-one]: the pIC50 is 7.00 to 8.00. For the compound `COc1ccc(-c2ccc3[nH]c(=O)ccc3c2)c2cncnc12` [Example 88, 6-(8-methoxyquinazolin-5-yl)quinolin-2(1H)-one], the pIC50 is 7.00 to 8.00. Consider `COc1ccc(-c2ccc3[nH]c(=O)ccc3c2)n2cc(C(F)(F)F)nc12` [Example 90, 6-(8-Methoxy-2-trifluoromethylimidazo[1,2-a]pyridin-5-yl)quinolin-2(1H)-one], for which the pIC50 was 7.00 to 8.00. With `COc1ccc(-c2ccc3c(ccc(=O)n3C)c2)c2cc(C(F)(F)F)nn12` [Example 91, 6-(7-Methoxy-2-trifluoromethylpyrazolo[1,5-a]pyridin-4-yl)-1-methyl quinolin-2(1H)-one], the pIC50 was over 8.00.

For `CCOC(=O)Cn1c(=O)ccc2cc(-c3ccc(OC)n4nc(C(F)(F)F)cc34)ccc21` [Example 92, Ethyl 2-(6-(7-methoxy-2-trifluoromethylpyrazolo[1,5-a]pyridin-4-yl)-2-oxo-quinolin-2(1H)-yl)acetate], the pIC50 is 7.00 to 8.00.

For the compound `COc1ccc(-c2ccc3c(ccc(=O)n3CC(=O)O)c2)c2cc(C(F)(F)F)nn12` [Example 93, 2-(6-(7-Methoxy-2-trifluoromethylpyrazolo[1,5-a]pyridin-4-yl)-2-oxoquinolin-2(1H)-yl)acetic acid], the pIC50 is 7.00 to 8.00. Regarding `COc1ccc(-c2ccc3c(ccc(=O)n3Cc3ccccc3)c2)c2cc(C(F)(F)F)nn12` [Example 94, 1-Benzyl-6-(7-methoxy-2-trifluoromethylpyrazolo[1,5-a]pyridin-4-yl)quinolin-2(1H)-one], the pIC50 is over 8.00. `COc1ccc(-c2ccc3[nH]c(=O)ccc3c2)c2cc(C(F)(F)F)sc12` [Example 111]: the pIC50 is 7.00 to 8.00.

Regarding `CCc1nc2c(OC)ccc(-c3ccc4[nH]c(=O)ccc4c3)c2o1` [Example 112, 6-(2-Ethyl-4-methoxybenzo[d]oxazol-7-yl)quinolin-2(1H)-one], the pIC50 is over 8.00. For `COc1ccc(-c2ccc3[nH]c(=O)ccc3c2)c2cc(C3CC3)nn12` [Example 114, 6-(2-Cyclopropyl-7-methoxypyrazolo[1,5-a]pyridin-4-yl)quinolin-2(1H)-one], the pIC50 is over 8.00. On to `COc1ccc(-c2ccc3c(c2)CCC(=O)N3)c2c(Cl)c(C(F)(F)F)nn12` [Example 116, 6-(3-Chloro-7-methoxy-2-trifluoromethylpyrazolo[1,5-a]pyridin-4-yl)-3,4-dihydroquinolin-2(1H)-one], for which the pIC50 was 7.00 to 8.00.

In the case of `COc1ccc(-c2ccc3c(c2)CCC(=O)N3C)c2c(Cl)c(C(F)(F)F)nn12` [Example 117, 6-(3-Chloro-7-methoxy-2-trifluoromethylpyrazolo[1,5-a]pyridin-4-yl)-1-methyl-3,4-dihydroquinolin-2(1H)-one], the pIC50 is 7.00 to 8.00. Consider `COc1ccc(-c2ccc3[nH]c(=O)ccc3c2)c2[nH]c(C(F)(F)F)nc12` [Example 118, 6-(4-Methoxy-2-trifluoromethyl-1H-benzo[d]imidazol-7-yl)quinolin-2(1H)-one; or 6-(7-methoxy-2-trifluoromethyl-1H-benzo[d]imidazol-4-yl)quinolin-2(1H)-one], for which the pIC50 was 7.00 to 8.00. Take `COc1ccc(-c2ccc3[nH]c(=O)ccc3c2)c2cc(C(F)(F)F)oc12` [Example 119, 6-(7-Methoxy-2-trifluoromethylbenzofuran-4-yl)quinolin-2(1H)-one]: the pIC50 was over 8.00. Turning to `COc1ccc(-c2ccc3[nH]c(=O)ccc3c2)c2cccnc12` [Example 120, 6-(8-Methoxyquinolin-5-yl)quinolin-2(1H)-one], the pIC50 is 7.00 to 8.00. Turning to `COc1ccc(-c2ccc3c(c2)CC(C)NC3=O)c2cc(C(F)(F)F)nn12` (centres unmarked) [Example 122, 6-(7-Methoxy-2-trifluoromethylpyrazolo[1,5-a]pyridin-4-yl)-3-methyl-3,4-dihydroisoquinolin-1(2H)-one], the pIC50 was 7.00 to 8.00. Take `COc1ccc(-c2ccc3c(=O)[nH]cc(Cl)c3c2)c2c(Cl)c(C(F)(F)F)nn12` [Example 125, 4-Chloro-6-(3-chloro-7-methoxy-2-trifluoromethylpyrazolo[1,5-a]pyridin-4-yl)isoquinolin-1(2H)-one]: the pIC50 is over 8.00.

`COc1ccc(-c2ccc3c(=O)[nH]cc(Cl)c3c2)n2c(Cl)c(C(F)(F)F)nc12` [Example 126, 4-Chloro-6-(3-chloro-8-methoxy-2-trifluoromethylimidazo[1,2-a]pyridin-5-yl)isoquinolin-1(2H)-one]: the pIC50 is over 8.00.

On to `CNc1ccc(-c2ccc3c(ccc(=O)n3C)c2)c2c(Cl)c(C(F)(F)F)nn12` [Example 137], for which the pIC50 is over 8.00. To `CNc1ccc(-c2ccc3c(=O)[nH]cc(Cl)c3c2)c2cc(C(F)(F)F)nn12` [Example 138, 4-Chloro-6-(7-(methylamino)-2-trifluoromethylpyrazolo[1,5-a]pyridin-4-yl)isoquinolin-1(2H)-one] belongs over 8.00; to `CNc1ccc(-c2ccc3c(=O)[nH]cc(Cl)c3c2)c2c(Cl)c(C(F)(F)F)nn12` [Example 139, 4-Chloro-6-(3-chloro-7-(methylamino)-2-trifluoromethylpyrazolo[1,5-a]pyridin-4-yl)isoquinolin-1(2H)-one], over 8.00; to `Nc1ccc(-c2ccc3[nH]c(=O)ccc3c2)c2cc(C(F)(F)F)nn12` [Example 140, 6-(7-Amino-2-trifluoromethylpyrazolo[1,5-a]pyridin-4-yl)quinolin-2(1H)-one], over 8.00.
